Source: PubChem BioAssay AID1259407 (Chemical Carcinogenesis Research Information System (CCRIS), 2018)
The source made the active and inactive calls. No rule for the calls is given here.

Tested on: CCRIS mutagenicity, Ames/micronucleus/aberration tests
Assay: CCRIS mutagenicity studies
[1] = Test System: AMES SALMONELLA TYPHIMURIUM, Strain/Indicator: TA100, Metabolic Activation: NONE, Method: PREINCUBATION
[2] = Test System: AMES SALMONELLA TYPHIMURIUM, Strain/Indicator: TA100, Metabolic Activation: RAT, LIVER, S-9, AROCLOR 1254, Method: PREINCUBATION
[3] = Test System: MOUSE LYMPHOMA, Strain/Indicator: L5178Y (TK+/TK-), Metabolic Activation: NONE, Method: SUSPENSION/PLATE

Measured: mutagenic call

O=C(O)/C=C/c1ccccc1
active: [3] active; positive. reevaluation of results: equivocal
inactive: Test System: AMES SALMONELLA TYPHIMURIUM, Strain/Indicator: TA98, Metabolic Activation: HAMSTER, LIVER, S-9, AROCLOR 1254 (2.5-20%), Method: PREINCUBATION inactive; negative | Test System: AMES SALMONELLA TYPHIMURIUM, Strain/Indicator: TA98, Metabolic Activation: HAMSTER, LIVER, S-9, AROCLOR 1254, Method: STANDARD PLATE inactive; negative | Test System: AMES SALMONELLA TYPHIMURIUM, Strain/Indicator: TA98, Metabolic Activation: NONE, Method: STANDARD PLATE inactive; negative | Test System: AMES SALMONELLA TYPHIMURIUM, Strain/Indicator: TA98, Metabolic Activation: RAT, LIVER, S-9, AROCLOR 1254, Method: STANDARD PLATE inactive; negative | Test System: AMES SALMONELLA TYPHIMURIUM, Strain/Indicator: TA100, Metabolic Activation: HAMSTER, LIVER, S-9, AROCLOR 1254 (2.5-20%), Method: PREINCUBATION inactive; negative | Test System: AMES SALMONELLA TYPHIMURIUM, Strain/Indicator: TA100, Metabolic Activation: HAMSTER, LIVER, S-9, AROCLOR 1254, Method: STANDARD PLATE inactive; negative | [1] inactive; negative | Test System: AMES SALMONELLA TYPHIMURIUM, Strain/Indicator: TA100, Metabolic Activation: NONE, Method: STANDARD PLATE inactive; negative | [2] inactive; negative | Test System: AMES SALMONELLA TYPHIMURIUM, Strain/Indicator: TA100, Metabolic Activation: RAT, LIVER, S-9, AROCLOR 1254, Method: STANDARD PLATE inactive; negative | Test System: AMES SALMONELLA TYPHIMURIUM, Strain/Indicator: TA102, Metabolic Activation: HAMSTER, LIVER, S-9, AROCLOR 1254, Method: PREINCUBATION inactive; negative | Test System: AMES SALMONELLA TYPHIMURIUM, Strain/Indicator: TA102, Metabolic Activation: NONE, Method: PREINCUBATION inactive; negative | Test System: AMES SALMONELLA TYPHIMURIUM, Strain/Indicator: TA102, Metabolic Activation: RAT, LIVER, S-9, AROCLOR 1254, Method: PREINCUBATION inactive; negative | Test System: AMES SALMONELLA TYPHIMURIUM, Strain/Indicator: TA1535, Metabolic Activation: HAMSTER, LIVER, S-9, AROCLOR 1254, Method: STANDARD PLATE inactive; negative | Test System: AMES SALMONELLA TYPHIMURIUM, Strain/Indicator: TA1535, Metabolic Activation: NONE, Method: STANDARD PLATE inactive; negative | Test System: AMES SALMONELLA TYPHIMURIUM, Strain/Indicator: TA1535, Metabolic Activation: RAT, LIVER, S-9, AROCLOR 1254, Method: STANDARD PLATE inactive; negative | Test System: AMES SALMONELLA TYPHIMURIUM, Strain/Indicator: TA1537, Metabolic Activation: HAMSTER, LIVER, S-9, AROCLOR 1254, Method: STANDARD PLATE inactive; negative | Test System: AMES SALMONELLA TYPHIMURIUM, Strain/Indicator: TA1537, Metabolic Activation: NONE, Method: STANDARD PLATE inactive; negative | Test System: AMES SALMONELLA TYPHIMURIUM, Strain/Indicator: TA1537, Metabolic Activation: RAT, LIVER, S-9, AROCLOR 1254, Method: STANDARD PLATE inactive; negative | Test System: AMES SALMONELLA TYPHIMURIUM, Strain/Indicator: TA1538, Metabolic Activation: HAMSTER, LIVER, S-9, AROCLOR 1254, Method: STANDARD PLATE inactive; negative | Test System: AMES SALMONELLA TYPHIMURIUM, Strain/Indicator: TA1538, Metabolic Activation: NONE, Method: STANDARD PLATE inactive; negative | Test System: AMES SALMONELLA TYPHIMURIUM, Strain/Indicator: TA1538, Metabolic Activation: RAT, LIVER, S-9, AROCLOR 1254, Method: STANDARD PLATE inactive; negative | Test System: Mouse lymphoma, Strain/Indicator: L5178Y (tk+/tk-), Metabolic Activation: Rat, Liver, S-9, Aroclor 1254, Method: Suspension/plate inactive; negative

OCc1c[nH]c2ccccc12
inactive: Test System: Ames Salmonella typhimurium, Strain/Indicator: TA98, Metabolic Activation: None, Method: Plate incorporation inactive; negative | Test System: Ames Salmonella typhimurium, Strain/Indicator: TA98, Metabolic Activation: None, Method: Preincubation inactive; negative | Test System: Ames Salmonella typhimurium, Strain/Indicator: TA98, Metabolic Activation: Rat, Liver, S-9, Aroclor 1254, Method: Plate incorporation inactive; negative | Test System: Ames Salmonella typhimurium, Strain/Indicator: TA98, Metabolic Activation: Rat, Liver, S-9, Aroclor 1254, Method: Preincubation inactive; negative
active: [3] active; positive. reevaluation of results: positive | Test System: MOUSE LYMPHOMA, Strain/Indicator: L5178Y (TK+/TK-), Metabolic Activation: RAT, LIVER, S-9, AROCLOR 1254, Method: SUSPENSION/PLATE active; positive. reevaluation of results: positive

C=C(C)[C@H]1CC=C(C)C(=O)C1
inactive: Test System: AMES SALMONELLA TYPHIMURIUM, Strain/Indicator: TA98, Metabolic Activation: HAMSTER, LIVER, S-9, AROCLOR 1254, Method: PREINCUBATION inactive; negative | Test System: AMES SALMONELLA TYPHIMURIUM, Strain/Indicator: TA98, Metabolic Activation: NONE, Method: PREINCUBATION inactive; negative | Test System: AMES SALMONELLA TYPHIMURIUM, Strain/Indicator: TA98, Metabolic Activation: RAT, LIVER, S-9, AROCLOR 1254, Method: PREINCUBATION inactive; negative | Test System: AMES SALMONELLA TYPHIMURIUM, Strain/Indicator: TA100, Metabolic Activation: HAMSTER, LIVER, S-9, AROCLOR 1254, Method: PREINCUBATION inactive; negative | [1] inactive; negative | [2] inactive; negative | Test System: AMES SALMONELLA TYPHIMURIUM, Strain/Indicator: TA1535, Metabolic Activation: HAMSTER, LIVER, S-9, AROCLOR 1254, Method: PREINCUBATION inactive; negative | Test System: AMES SALMONELLA TYPHIMURIUM, Strain/Indicator: TA1535, Metabolic Activation: NONE, Method: PREINCUBATION inactive; negative | Test System: AMES SALMONELLA TYPHIMURIUM, Strain/Indicator: TA1535, Metabolic Activation: RAT, LIVER, S-9, AROCLOR 1254, Method: PREINCUBATION inactive; negative | Test System: AMES SALMONELLA TYPHIMURIUM, Strain/Indicator: TA1537, Metabolic Activation: HAMSTER, LIVER, S-9, AROCLOR 1254, Method: PREINCUBATION inactive; negative | Test System: AMES SALMONELLA TYPHIMURIUM, Strain/Indicator: TA1537, Metabolic Activation: NONE, Method: PREINCUBATION inactive; negative | Test System: AMES SALMONELLA TYPHIMURIUM, Strain/Indicator: TA1537, Metabolic Activation: RAT, LIVER, S-9, AROCLOR 1254, Method: PREINCUBATION inactive; negative

c1cc[n+]2c(c1)-c1cccc[n+]1CC2
inactive: Test System: AMES SALMONELLA TYPHIMURIUM, Strain/Indicator: TA102, Metabolic Activation: NONE, Method: STANDARD PLATE inactive; negative | Test System: AMES SALMONELLA TYPHIMURIUM, Strain/Indicator: TA2638, Metabolic Activation: NONE, Method: STANDARD PLATE inactive; negative | Test System: E. COLI, Strain/Indicator: WP2 (PKM101), Metabolic Activation: NONE, Method: STANDARD PLATE inactive; negative | Test System: E. COLI, Strain/Indicator: WP2 UVRA (PKM101), Metabolic Activation: NONE, Method: STANDARD PLATE inactive; negative

C=C1C[C@@]23CC[C@H]4[C@@](C)(CCC[C@@]4(C)C(=O)O[C@@H]4O[C@H](CO)[C@@H](O)[C@H](O)[C@H]4O)[C@@H]2CC[C@]1(O[C@@H]1O[C@H](CO)[C@@H](O)[C@H](O[C@@H]2O[C@H](CO)[C@@H](O)[C@H](O)[C@H]2O)[C@H]1O[C@@H]1O[C@@H](C)[C@H](O)[C@@H](O)[C@H]1O)C3
inactive: Test System: AMES SALMONELLA TYPHIMURIUM, Strain/Indicator: TM677, Metabolic Activation: RAT, LIVER, S-9, AROCLOR 1254, Method: PREINCUBATION inactive; negative

O[C@H]1[C@@H]2O[C@@H]2c2c(ccc3ccc4ccccc4c23)[C@@H]1O
active: Test System: E. COLI, Strain/Indicator: CL101P, Metabolic Activation: NONE, Method: PREINCUBATION active; positive | Test System: E. COLI, Strain/Indicator: CL102P, Metabolic Activation: NONE, Method: PREINCUBATION active; positive | Test System: E. COLI, Strain/Indicator: CL103P, Metabolic Activation: NONE, Method: PREINCUBATION active; positive | Test System: E. COLI, Strain/Indicator: CL104P, Metabolic Activation: NONE, Method: PREINCUBATION active; positive | Test System: E. COLI, Strain/Indicator: CL105P, Metabolic Activation: NONE, Method: PREINCUBATION active; positive | Test System: E. COLI, Strain/Indicator: CL106P, Metabolic Activation: NONE, Method: PREINCUBATION active; positive
